Results on 18 molecules are retold here after ChEMBL document CHEMBL1201862, “PubChem BioAssay data set” (2004).

One assay deals with T1, Hexokinase (Trypanosoma brucei, UniProt Q38C41).
T1 sequence (Q38C41 whole entry): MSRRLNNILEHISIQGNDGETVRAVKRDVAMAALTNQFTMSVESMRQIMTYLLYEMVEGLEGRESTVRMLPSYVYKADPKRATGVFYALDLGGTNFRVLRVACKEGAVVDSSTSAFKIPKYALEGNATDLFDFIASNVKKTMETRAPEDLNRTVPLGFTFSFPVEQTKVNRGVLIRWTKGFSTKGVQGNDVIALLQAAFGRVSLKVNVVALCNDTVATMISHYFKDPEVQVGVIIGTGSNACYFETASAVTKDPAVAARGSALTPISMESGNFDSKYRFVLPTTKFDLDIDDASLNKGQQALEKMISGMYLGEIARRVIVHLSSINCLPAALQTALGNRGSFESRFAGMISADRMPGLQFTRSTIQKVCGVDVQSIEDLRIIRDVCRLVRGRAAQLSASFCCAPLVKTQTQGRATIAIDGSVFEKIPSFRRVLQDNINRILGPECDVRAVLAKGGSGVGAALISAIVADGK
As to the kind of experiment: Confirmation assay for inhibitors of Trypanosoma brucei hexokinase 1-Analogue-first series. [Related pubchem assays (depositor defined):AID1430, AID1632, AID2516, AID2560, AID2579, AID2600, AID449725, AID492951]. In kind it is functional.

In assay [1] the target is Glyceraldehyde-3-phosphate dehydrogenase (Homo sapiens, UniProt P04406).
Sequence of Glyceraldehyde-3-phosphate dehydrogenase (P04406 whole entry): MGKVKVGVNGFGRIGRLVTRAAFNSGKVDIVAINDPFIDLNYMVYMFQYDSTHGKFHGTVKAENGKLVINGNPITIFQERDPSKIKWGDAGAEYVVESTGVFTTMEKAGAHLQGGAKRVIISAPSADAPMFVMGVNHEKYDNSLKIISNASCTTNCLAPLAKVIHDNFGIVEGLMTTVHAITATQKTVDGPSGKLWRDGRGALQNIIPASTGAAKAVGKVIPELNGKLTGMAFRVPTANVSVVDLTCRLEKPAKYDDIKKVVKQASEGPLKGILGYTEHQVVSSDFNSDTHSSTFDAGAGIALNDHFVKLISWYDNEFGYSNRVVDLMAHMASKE
The target of assay [2] is Alkaline phosphatase, placental type (Homo sapiens, UniProt P05187). As to the kind of experiment: PLAP enzyme inhibitors, confirmation, biochemical, luminescence (AID 1512). It counts as functional.
Sequence of Alkaline phosphatase, placental type (P05187 whole entry): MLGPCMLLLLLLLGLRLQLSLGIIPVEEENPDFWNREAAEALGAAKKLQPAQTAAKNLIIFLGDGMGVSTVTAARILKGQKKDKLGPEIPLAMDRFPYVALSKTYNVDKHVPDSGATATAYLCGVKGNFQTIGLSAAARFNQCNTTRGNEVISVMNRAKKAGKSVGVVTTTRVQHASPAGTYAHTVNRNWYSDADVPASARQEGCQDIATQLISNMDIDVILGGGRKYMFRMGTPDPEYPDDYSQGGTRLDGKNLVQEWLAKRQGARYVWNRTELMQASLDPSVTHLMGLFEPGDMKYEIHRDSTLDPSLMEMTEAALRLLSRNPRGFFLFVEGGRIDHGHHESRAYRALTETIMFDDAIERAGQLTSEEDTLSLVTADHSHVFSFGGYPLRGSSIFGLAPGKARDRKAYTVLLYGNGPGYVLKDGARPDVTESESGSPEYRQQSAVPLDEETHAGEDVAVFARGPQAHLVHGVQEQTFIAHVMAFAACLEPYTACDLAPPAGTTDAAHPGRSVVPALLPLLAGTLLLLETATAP
For assay [3], the target named is T2, Alkaline phosphatase, tissue-nonspecific isozyme (Homo sapiens, UniProt P05186).
T2 sequence (P05186 whole entry): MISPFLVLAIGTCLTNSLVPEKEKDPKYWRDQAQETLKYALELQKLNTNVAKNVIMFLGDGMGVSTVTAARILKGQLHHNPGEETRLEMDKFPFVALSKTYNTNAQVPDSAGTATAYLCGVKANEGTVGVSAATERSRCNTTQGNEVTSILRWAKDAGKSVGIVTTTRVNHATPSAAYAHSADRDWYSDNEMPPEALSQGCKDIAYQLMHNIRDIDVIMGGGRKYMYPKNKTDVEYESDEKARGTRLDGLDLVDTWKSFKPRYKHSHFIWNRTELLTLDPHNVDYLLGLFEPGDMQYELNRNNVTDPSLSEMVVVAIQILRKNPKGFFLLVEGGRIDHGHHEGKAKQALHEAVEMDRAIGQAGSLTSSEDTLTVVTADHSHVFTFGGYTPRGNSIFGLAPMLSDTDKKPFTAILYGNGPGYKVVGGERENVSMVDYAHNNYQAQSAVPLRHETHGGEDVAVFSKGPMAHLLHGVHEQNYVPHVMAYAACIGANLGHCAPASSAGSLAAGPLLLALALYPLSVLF
As to the kind of experiment: human TNAP enzyme inhibitors, SAR follow-up, biochemical, luminescent, dose response (AID 1056).

The nature of assay [4]: Luminescence Cell-Based Dose Confirmation HTS to Identify Activators of 5'UTR Stem-Loop Driven Alpha-Synuclein mRNA Translation in H4 Neuroglioblastoma Cells. [Related pubchem assays: 1829 (Project Summary), 1814 (Primary HTS)]. In kind it is functional.
Assay [5] concerns the target Intestinal-type alkaline phosphatase (Homo sapiens, UniProt P09923). As to the kind of experiment: human intestinal alkaline phosphatase activators, dose response, biochemical, luminescence, uHTS hits (AID 463120). In kind it is functional.
Assay [6] in a line: Luminescence Cell-Based Dose Response HTS to Identify Activators of Luciferase Translation or Activity in H4 […] Cells. [Related pubchem assays: 1829 (Project Summary), 1814 (Primary HTS)]. It counts as functional.
For another assay, the system named is H4. As to the kind of experiment: Luminescence Cell-Based Dose Response HTS to Identify Activators of 5'UTR Stem-Loop Driven Prion Protein mRNA Translation in H4 Neuroglioblastoma Cells. [Related pubchem assays: 1829 (Project Summary), 1814 (Primary HTS)]. In kind it is functional. The note with it: Homo sapiens.
The target in assay [7] is T3, Sphingosine 1-phosphate receptor 4 (Homo sapiens, UniProt O95977).
T3 sequence (O95977 whole entry): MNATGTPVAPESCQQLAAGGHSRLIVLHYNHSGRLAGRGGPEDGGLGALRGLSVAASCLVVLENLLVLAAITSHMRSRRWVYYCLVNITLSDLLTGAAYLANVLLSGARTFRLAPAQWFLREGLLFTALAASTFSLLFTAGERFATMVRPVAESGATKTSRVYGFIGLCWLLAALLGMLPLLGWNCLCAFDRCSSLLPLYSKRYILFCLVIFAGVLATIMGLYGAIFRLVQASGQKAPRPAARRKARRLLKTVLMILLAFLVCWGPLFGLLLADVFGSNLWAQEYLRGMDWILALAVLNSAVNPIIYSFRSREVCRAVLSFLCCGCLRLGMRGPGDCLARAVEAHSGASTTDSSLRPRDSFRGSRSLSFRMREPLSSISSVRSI
As to the kind of experiment: Late-stage fluorescence dose response cell-based assay to identify agonists of the Sphingosine 1-Phosphate Receptor 4 (S1P4): purchased compounds EC50. [Related pubchem assays (depositor defined):AID1509, AID1523, AID1563, AID1686, AID1701, AID1801]. In kind it is functional.

The target in a further assay is T4, Bcl-2-related protein A1 (Mus musculus, UniProt Q07440).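 Further: confirmatory dose–response counterscreen on Bfl-1, used to check hits from a UBC13 polyubiquitin inhibitor campaign.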
T4 sequence (Q07440 whole entry): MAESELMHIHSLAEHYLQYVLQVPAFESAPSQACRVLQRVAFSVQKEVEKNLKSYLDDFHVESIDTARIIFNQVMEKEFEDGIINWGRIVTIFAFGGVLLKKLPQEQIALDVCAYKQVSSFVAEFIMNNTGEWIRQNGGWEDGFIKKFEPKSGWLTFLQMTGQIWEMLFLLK
It counts as functional.

The target of assay [8] is T5, Ubiquitin-conjugating enzyme E2 N (Homo sapiens, UniProt P61088).
T5 sequence (P61088 whole entry): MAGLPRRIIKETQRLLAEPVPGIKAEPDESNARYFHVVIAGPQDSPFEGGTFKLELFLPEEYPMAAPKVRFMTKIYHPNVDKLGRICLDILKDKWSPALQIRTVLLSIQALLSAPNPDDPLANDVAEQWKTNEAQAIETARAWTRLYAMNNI
In kind it is functional.

Assay [9] deals with T5, Ubiquitin-conjugating enzyme E2 N. It counts as functional. This is another data set of the same source.
Assay [10] addresses T6, Polyadenylate-binding protein 1 (Homo sapiens, UniProt P11940). Briefly: PABP1 MLLE–PAM2 binding inhibitor potency, dose response, biochemical, fluorescence polarization, FITC-PAM2 peptide (AID 602259). In kind it is functional. Particulars: read-out: IC50_Mean.
Assay [11] has as its target E3 ubiquitin-protein ligase XIAP (Homo sapiens, UniProt P98170). As to the kind of experiment: Counter Screen using XIAP-Bir3 for Chemical Antagonists of Bir1/2 domains of IAP-family anti-apoptotic proteins. [Related pubchem assays (depositor defined):AID1018, AID1449, AID1514, AID1638, AID1749, AID1750, AID488957, AID488963]. For orientation: Counterscreens check selectivity or assay interference.

The target in assay [12] is T6, Polyadenylate-binding protein 1. As to the kind of experiment: PABP1 MLLE–PAM2 interaction inhibitors, dose response, miRNA deadenylation inhibitor project, biochemical, fluorescence polarization, Cy5-PAM2 peptide, secondary (AID 602260). In kind it is functional. The note with it: read-out: IC50_Mean. (Fluorescence polarisation rises when a labelled molecule tumbles more slowly, as on binding a larger partner.)

The next assay can be described thus: cells. It counts as functional.
Assay [13] can be described thus: microbe, parasite or virus in culture. In kind it is functional. Particulars: Mycobacterium tuberculosis.
Assay [14] is described as follows: Vero E6 cell cytotoxicity, dose response, cytotoxicity control for non-replicating M. tuberculosis project, secondary assay (AID 492998). Particulars: Vero C1008. It counts as functional, VeroE6.
A short description of assay [15]: THP-1 cell cytotoxicity, dose response, cytotoxicity control for non-replicating M. tuberculosis project (AID 489025). In kind it is functional.
Assay [16] concerns the target DNA dC->dU-editing enzyme APOBEC-3A (Homo sapiens, UniProt P31941). As to the kind of experiment: APOBEC3A DNA deaminase inhibitors, dose response, biochemical (AID 504722). It counts as functional.
Assay [17] concerns the target DNA dC->dU-editing enzyme APOBEC-3G (Homo sapiens, UniProt Q9HC16). Briefly: Dose Response confirmation of small molecule APOBEC3G DNA Deaminase Inhibitors via a fluorescence-based single-stranded DNA deaminase assay. [Related pubchem assays (depositor defined):AID493012, AID493028]. It counts as functional.
For another assay, the target named is T7, CAAX prenyl protease 2 (Saccharomyces cerevisiae S288c, UniProt Q03530).
T7 sequence (Q03530 whole entry): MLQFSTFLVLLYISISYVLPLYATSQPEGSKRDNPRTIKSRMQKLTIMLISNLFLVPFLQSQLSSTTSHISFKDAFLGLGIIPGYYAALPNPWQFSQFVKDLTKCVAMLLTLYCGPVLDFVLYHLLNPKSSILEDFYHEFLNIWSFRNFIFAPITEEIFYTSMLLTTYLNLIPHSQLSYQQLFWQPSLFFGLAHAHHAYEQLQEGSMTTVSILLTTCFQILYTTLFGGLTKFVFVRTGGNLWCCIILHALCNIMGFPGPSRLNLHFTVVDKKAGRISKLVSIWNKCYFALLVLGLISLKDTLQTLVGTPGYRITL
It counts as biochemical.

In assay [18] the target is G-protein coupled receptor 55 (Homo sapiens, UniProt Q9Y2T6). Briefly: GPR55 agonists via beta-arrestin recruitment, primary screen, imaging, U2OS cells, beta-arrestin-GFP redistribution (AID 1961). It counts as functional. In general terms: Recruitment of arrestin is a read-out of receptor activation apart from second messengers.
Sequence of G-protein coupled receptor 55 (Q9Y2T6 whole entry): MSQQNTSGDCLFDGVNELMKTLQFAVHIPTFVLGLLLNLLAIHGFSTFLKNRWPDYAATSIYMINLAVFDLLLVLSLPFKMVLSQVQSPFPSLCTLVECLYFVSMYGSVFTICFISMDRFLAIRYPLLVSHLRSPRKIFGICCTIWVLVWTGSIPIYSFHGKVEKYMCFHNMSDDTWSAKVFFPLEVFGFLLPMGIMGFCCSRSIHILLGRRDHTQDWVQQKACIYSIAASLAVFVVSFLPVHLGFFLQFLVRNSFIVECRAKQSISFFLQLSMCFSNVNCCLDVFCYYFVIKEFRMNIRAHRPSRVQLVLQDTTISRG

The source made the active and inactive calls.

T6 sequence (P11940 whole entry): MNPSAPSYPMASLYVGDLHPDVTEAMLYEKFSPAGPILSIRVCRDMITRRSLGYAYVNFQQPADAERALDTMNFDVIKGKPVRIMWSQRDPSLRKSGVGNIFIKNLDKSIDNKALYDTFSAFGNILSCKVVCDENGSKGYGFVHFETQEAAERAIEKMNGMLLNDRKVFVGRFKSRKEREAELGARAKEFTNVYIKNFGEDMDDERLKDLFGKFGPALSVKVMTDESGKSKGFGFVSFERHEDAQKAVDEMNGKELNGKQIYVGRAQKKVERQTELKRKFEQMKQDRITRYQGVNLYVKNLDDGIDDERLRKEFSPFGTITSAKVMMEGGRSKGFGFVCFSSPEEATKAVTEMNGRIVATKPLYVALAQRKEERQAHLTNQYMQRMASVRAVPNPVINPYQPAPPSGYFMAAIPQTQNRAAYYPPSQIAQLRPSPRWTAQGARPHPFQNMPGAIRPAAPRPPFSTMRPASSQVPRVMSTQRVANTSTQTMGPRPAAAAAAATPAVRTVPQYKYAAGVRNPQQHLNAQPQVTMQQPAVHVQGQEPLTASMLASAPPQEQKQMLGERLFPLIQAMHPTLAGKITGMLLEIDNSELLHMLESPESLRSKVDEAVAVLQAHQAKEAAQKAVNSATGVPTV
Sequence of DNA dC->dU-editing enzyme APOBEC-3A (P31941 whole entry): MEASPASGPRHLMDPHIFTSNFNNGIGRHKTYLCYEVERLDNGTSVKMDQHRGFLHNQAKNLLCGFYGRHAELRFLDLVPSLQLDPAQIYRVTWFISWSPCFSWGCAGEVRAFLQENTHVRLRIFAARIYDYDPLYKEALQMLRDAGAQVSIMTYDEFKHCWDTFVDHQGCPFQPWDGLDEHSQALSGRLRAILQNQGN
Sequence of DNA dC->dU-editing enzyme APOBEC-3G (Q9HC16 whole entry): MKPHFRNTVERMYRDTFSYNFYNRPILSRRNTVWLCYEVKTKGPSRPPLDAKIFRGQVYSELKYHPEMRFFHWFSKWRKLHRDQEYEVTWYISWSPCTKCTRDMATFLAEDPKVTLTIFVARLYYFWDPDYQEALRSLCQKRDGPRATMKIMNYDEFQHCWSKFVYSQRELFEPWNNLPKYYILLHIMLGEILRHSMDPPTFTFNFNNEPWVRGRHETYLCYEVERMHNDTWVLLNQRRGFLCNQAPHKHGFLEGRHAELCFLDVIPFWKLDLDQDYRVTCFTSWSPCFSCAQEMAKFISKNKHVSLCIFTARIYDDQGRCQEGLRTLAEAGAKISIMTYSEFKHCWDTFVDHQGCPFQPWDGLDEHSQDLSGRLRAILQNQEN
Sequence of Intestinal-type alkaline phosphatase (P09923 whole entry): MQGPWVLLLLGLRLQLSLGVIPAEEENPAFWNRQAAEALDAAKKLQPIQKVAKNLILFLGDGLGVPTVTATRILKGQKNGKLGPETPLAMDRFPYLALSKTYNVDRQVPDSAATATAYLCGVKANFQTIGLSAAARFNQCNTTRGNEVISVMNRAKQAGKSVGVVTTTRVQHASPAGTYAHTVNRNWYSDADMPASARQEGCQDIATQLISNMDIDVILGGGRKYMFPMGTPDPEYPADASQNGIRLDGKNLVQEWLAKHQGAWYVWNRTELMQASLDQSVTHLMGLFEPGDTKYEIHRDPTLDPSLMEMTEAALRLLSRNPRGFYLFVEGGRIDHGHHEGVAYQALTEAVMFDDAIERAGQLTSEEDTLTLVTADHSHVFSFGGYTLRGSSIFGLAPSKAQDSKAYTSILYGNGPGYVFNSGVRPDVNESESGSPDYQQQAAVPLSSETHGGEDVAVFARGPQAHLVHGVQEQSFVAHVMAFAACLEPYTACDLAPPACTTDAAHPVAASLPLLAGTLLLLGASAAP
Sequence of E3 ubiquitin-protein ligase XIAP (P98170 whole entry): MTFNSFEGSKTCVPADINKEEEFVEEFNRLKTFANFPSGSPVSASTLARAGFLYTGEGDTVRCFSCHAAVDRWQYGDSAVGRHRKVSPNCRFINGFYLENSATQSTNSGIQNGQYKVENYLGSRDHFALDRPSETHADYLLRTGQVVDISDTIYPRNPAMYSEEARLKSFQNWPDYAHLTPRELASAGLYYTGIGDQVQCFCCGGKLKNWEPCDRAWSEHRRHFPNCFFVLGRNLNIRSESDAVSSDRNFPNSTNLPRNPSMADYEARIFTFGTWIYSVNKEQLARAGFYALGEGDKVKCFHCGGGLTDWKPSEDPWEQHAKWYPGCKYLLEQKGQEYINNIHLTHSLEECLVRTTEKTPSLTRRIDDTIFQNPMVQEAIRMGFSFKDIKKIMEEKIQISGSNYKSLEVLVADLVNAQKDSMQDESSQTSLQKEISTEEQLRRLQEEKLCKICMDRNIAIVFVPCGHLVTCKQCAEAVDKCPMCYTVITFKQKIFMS

As to `COc1ccc(C(=O)Nc2cc(C(=O)O)ccc2Cl)cc1`, at Hexokinase, the IC50 was > 25 µM (inactive).

Consider `COc1ccc(-c2[nH]nc(-c3ccccc3)c2-c2nc3ccccc3[nH]2)cc1`, for which the values for the IC50 in assay [1], in assay [2] and in assay [3] were 81.2 µM (active), > 100 µM (inactive) and > 100 µM (inactive), respectively.

`Cc1ccc(S(=O)(=O)Nc2nc3ccccc3nc2NCc2ccco2)cc1`: the EC50 in [4] was 8.02 µM (active); in [5], > 100 µM (inactive); in assay [6], 10.8 µM (active); in the assay on H4, 7.32 µM (active).

For `Cc1ccc(OCc2c(Cl)cccc2Cl)c([N+](=O)[O-])n1`, the EC50 in assay [7] is > 50 µM (inactive).

In the case of `C#CCOCCOCCOCCNc1nc(N2CCN(C(=O)[C@H](CCCN=C(N)N)n3cc(C(N)[C@@H](C)CC)nn3)CC2)nc(N2CCN(C(=O)[C@H](CCCCN)n3cc([C@@H](N)[C@H](C)CC)nn3)CC2)n1` (stereo partly drawn), the IC50 was > 20 µM (inactive) at Bcl-2-related protein A1, 18.4 µM (active) in [8] and 15.2 µM (active) in assay [9].

With `COc1cc(NS(=O)(=O)c2ccc(NC(=S)NC(=O)/C=C/c3ccc(F)cc3)cc2)ncn1`, the IC50 is > 66 µM (inactive) in assay [10], > 20 µM (inactive) in assay [11] and > 66 µM (inactive) in assay [12].

Take `Cn1ncc2c1ncn1c(-c3ccccc3)nnc21`: the results for the IC50 in assay [1], in assay [2] and in assay [3] were > 100 µM (not active), > 100 µM (inactive) and > 100 µM (inactive), respectively.

As to `O=C(NNC(=O)c1nn(-c2ccc(F)cc2)ccc1=O)c1ccc(Cl)cc1`, the IC50 at Bcl-2-related protein A1 was > 20 µM (inactive); in [8] it was 19.8 µM (active); in assay [9] it was 18.9 µM (active).

Consider `Cc1ccc(OCc2cccc(COc3ccc(C)nc3[N+](=O)[O-])c2)c([N+](=O)[O-])n1`, for which the EC50 in assay [7] was > 50 µM (inactive).

As to `CNC(C)C#Cc1ccc2oc3cc(C)c(C)cc3c(=O)c2c1` (stereo not drawn), the IC50 in the assay “cells” is 11.8 µM (active). The CC50 is 29 µM (active) in [13], > 20 µM (active) in assay [14] and 22.2 µM (active) in [15].

Take `Cc1nc(-c2ccccc2)sc1-c1n[nH]c(=S)n1C`: the IC50 in assay [16] is > 100 µM (inactive); in assay [17], 4.9 µM (active).

Consider `CCOC(=O)C1CCCN(C(=O)CCn2nnnc2CN2CCOCC2)C1` (stereo not drawn), for which, on CAAX prenyl protease 2, the AC50 was 27.9 µM (active).

Regarding `COc1ccccc1-c1nnc(SCC(=O)Nc2ccccc2[N+](=O)[O-])[nH]1`, the results for the IC50 in assay [1], in assay [2] and in [3] were > 100 µM (not active), > 100 µM (inactive) and 13.3 µM (active), respectively.

Turning to `Cc1ccc(OCC(=O)N(C)CCOc2ccc(Cl)cc2)c([N+](=O)[O-])n1`, the EC50 in [7] was > 50 µM (inactive).

For the molecule `COc1ccccc1CC(=O)Nc1ccc2c(c1)C(=O)NC2=O`, the EC50 in assay [18] is 14.9 µM (inactive).

In the case of `Nc1ccc(Oc2ccc3nc(-c4ccccc4)c(-c4ccccc4)nc3c2)cc1`, the EC50 in [18] is 1.91 µM (active).

With `O=c1c2ccccc2cnn1Cc1nnc(S)n1-c1ccc(Cl)cc1`, the IC50 in [16] is > 100 µM (inactive); in assay [17], 5.01 µM (active).

In the case of `COc1ccc(C(=O)NC(CC(=O)O)c2ccc(Cl)cc2)cc1` (stereo not drawn), the IC50 on Hexokinase is > 25 µM (inactive).

One may read the EC50 as the concentration giving half of the maximal effect. For orientation: AC50 means the midpoint of the concentration-response curve, whichever way the signal moves.
